From US9974792B2, “Methods for treating cancers” (Gilead Sciences, Inc., priority 2013, dated 2018)

Assays:
[1] = Example 2: entospletinib plasma pharmacokinetics; type: in vivo, human; details: 800 mg twice a day, fasted
Text: Clinic visits, including laboratory tests and pharmacodynamic measurements, were scheduled for day 1 of each 28-day cycle. Blood samples for pharmacokinetic analyses of entospletinib were collected on day 1 of each 28-day cycle, on days 8, 15, and 22 of cycle 1 and on day 15 of cycle 2. Additional safety monitoring visits took place on days 8, 15, and 22 of cycle 1 and day 15 of cycle 2.

[2] = test system: phosphorylated Blnk in CD19+CD5+ circulating tumor cells; test: Example 1: BCR-mediated signaling, intracellular phosphoprotein flow cytometry; type: in vivo, human; details: Days 8 and 29 vs Day 1; CLL subjects (n=35)
Text: (§1) Nominal p-values from tests of mean change of Day 8 and 29 from Day 1 using mixed model for repeated measures are <0.0005.

[3] = test system: phosphorylated Syk in CD19+CD5+ circulating tumor cells; test: as above; type: in vivo, human; details: Days 8 and 29 vs Day 1; CLL subjects (n=35)
Text: as §1

[4] = test system: phosphorylated Btk in CD19+CD5+ circulating tumor cells; test: as above; type: in vivo, human; details: Days 8 and 29 vs Day 1; CLL subjects (n=35)
Text: as §1

[5] = test system: subjects with CLL, FL, lymphoplasmacytoid lymphoma/SLL/marginal zone lymphoma, MCL, or DLBCL; test: Example 2: phase 2 trial, safety analysis of all treated subjects
Protocol: A phase 2, open-label, single-agent study was completed to evaluate the efficacy, safety, tolerability, and pharmacodynamics of entospletinib in subjects with relapsed or refractory hematologic malignancies.
Treatment with entospletinib was at a dose of 800 mg twice a day over 28-day cycles under fasted conditions. Fasting was defined as no food or liquids other than water for 2 hours pre- and 1 hour post-dose.
Secondary end points included tolerability, objective response rate (ORR), duration of response (DOR), time to response, and lymph node response rate. […] Exploratory end points included plasma drug concentrations and pharmacodynamic biomarkers.
Subjects were allowed to enroll in the study if they had cytopenias due to CLL. Treatment-emergent cytopenias were defined as a cytopenia that worsened in the period from the first dose of study treatment to 30 days after the last dose of study treatment.

Q: With `c1cn2cc(-c3ccc4cn[nH]c4c3)nc(Nc3ccc(N4CCOCC4)cc3)c2n1` [compound of formula I, 6-(1H-indazol-6-yl)-N-(4-morpholinophenyl)imidazo[1,2-a]pyrazin-8-amine] as the molecule, how does the “Ctrough, mean (% coefficient of variation)” value [1] read?
A: Its value is 1100 (44%) ng/mL.

Q: What about the Cmax ([1]; human, oral, read-out: Cmax, mean (% coefficient of variation)) of the same molecule?
A: Its Cmax is 1490 ng/mL.

Q: What about the “phosphorylated Blnk in CD19+CD5+ circulating tumor cells” value [2] of the same molecule?
A: The value was “downregulation”.

Q: What about the “phosphorylated Syk in CD19+CD5+ circulating tumor cells” value [3] of the same molecule?
A: Its value is “downregulation”.

Q: And the “phosphorylated Btk in CD19+CD5+ circulating tumor cells” value [4]?
A: Its value is “downregulation”.

Q: And the “AE leading to study drug discontinuation: fatigue” value ([5]; N = 145)?
A: Its value is 3 n.

Q: And the “AE leading to study drug discontinuation: headache” value ([5]; N = 145)?
A: The value was 3 n.

Q: What about the “AE leading to study drug discontinuation: increased ALT” value ([5]; N = 145) of the same molecule?
A: Its value is 3 n.

Q: What about the “AEs resulting in discontinuation, % of all treated subjects” value ([5]; N = 145) of the same molecule?
A: Its value is 14.5%.

Q: And the “AEs resulting in dose reduction, % of all treated subjects” value ([5]; N = 145)?
A: The value was 7.6%.

Q: And the “Constipation, Any grade, %” value ([5]; N = 145)?
A: Its value is “(24.1) %”.

Q: What about the “Constipation, At least grade 3, %” value ([5]; N = 145) of the same molecule?
A: The value was “(1.4) %”.

Q: And the “Cough, Any grade, %” value ([5]; N = 145)?
A: Its value is “(19.3) %”.

Q: What about the “Cough, At least grade 3, %” value ([5]; N = 145) of the same molecule?
A: Its value is “(0.7) %”.

Q: What about the “Decreased appetite, Any grade, %” value ([5]; N = 145) of the same molecule?
A: Its value is “(24.1) %”.

Q: And the “Decreased appetite, At least grade 3, %” value ([5]; N = 145)?
A: Its value is “(0.7) %”.

Q: And the “Diarrhea, Any grade, %” value ([5]; N = 145)?
A: Its value is “(34.5) %”.

Q: What about the “Diarrhea, At least grade 3, %” value ([5]; N = 145) of the same molecule?
A: The value was “(0.7) %”.

Q: And the “Dizziness, Any grade, %” value ([5]; N = 145)?
A: Its value is “(20.7) %”.

Q: What about the “Dizziness, At least grade 3, %” value ([5]; N = 145) of the same molecule?
A: Its value is “(0.7) %”.

Q: What about the “Fatigue, Any grade, %” value ([5]; N = 145) of the same molecule?
A: The value was “(51.7) %”.

Q: And the “Fatigue, At least grade 3, %” value ([5]; N = 145)?
A: Its value is “(6.9) %”.

Q: What about the “Grade 3 fatigue, %” value ([5]; N = 145) of the same molecule?
A: The value was 6.9%.

Q: What about the “Grade 3 fatigue, subjects” value ([5]; N = 145) of the same molecule?
A: Its value is 10 subjects.

Q: And the “Headache, Any grade, %” value ([5]; N = 145)?
A: The value was “(22.8) %”.

Q: What about the “Headache, At least grade 3, %” value ([5]; N = 145) of the same molecule?
A: The value was “(0.7) %”.

Q: What about the “Insomnia, Any grade, %” value ([5]; N = 145) of the same molecule?
A: The value was “(15.9) %”.

Q: What about the “Laboratory abnormality: Anemia, Any grade, %” value ([5]; N = 145) of the same molecule?
A: The value was “(37.2) %”.

Q: What about the “Laboratory abnormality: Increased ALT, Any grade, %” value ([5]; N = 145) of the same molecule?
A: Its value is “(37.2) %”.

Q: What about the “Laboratory abnormality: Increased ALT, At least grade 3, %” value ([5]; N = 145) of the same molecule?
A: The value was “(13.8) %”.

Q: What about the “Laboratory abnormality: Increased AST, Any grade, %” value ([5]; N = 145) of the same molecule?
A: Its value is “(33.8) %”.

Q: What about the “Laboratory abnormality: Increased AST, At least grade 3, %” value ([5]; N = 145) of the same molecule?
A: The value was “(12.4) %”.

Q: What about the “Laboratory abnormality: Neutropenia, Any grade, %” value ([5]; N = 145) of the same molecule?
A: Its value is “(32.4) %”.

Q: And the “Laboratory abnormality: Thrombocytopenia, Any grade, %” value ([5]; N = 145)?
A: The value was “(6.9) %”.

Q: What about the “Laboratory abnormality: Thrombocytopenia, At least grade 3, %” value ([5]; N = 145) of the same molecule?
A: The value was “(2.8) %”.

Q: What about the “Laboratory abnormality: Total bilirubin, Any grade, %” value ([5]; N = 145) of the same molecule?
A: The value was “(31.0) %”.

Q: And the “Laboratory abnormality: Total bilirubin, At least grade 3, %” value ([5]; N = 145)?
A: The value was “(4.1) %”.

Q: What about the “Nausea, Any grade, %” value ([5]; N = 145) of the same molecule?
A: Its value is “(40) %”.

Q: What about the “Nausea, At least grade 3, %” value ([5]; N = 145) of the same molecule?
A: The value was “(3.4) %”.

Q: And the “Pyrexia, Any grade, %” value ([5]; N = 145)?
A: Its value is “(21.4) %”.

Q: What about the “Pyrexia, At least grade 3, %” value ([5]; N = 145) of the same molecule?
A: The value was “(2.1) %”.

Q: What about the “Serious AE: Anemia, %” value ([5]; N = 145) of the same molecule?
A: The value was “(2.1) %”.

Q: And the “Serious AE: Back pain, %” value ([5]; N = 145)?
A: The value was “(2.1) %”.

Q: And the “Serious AE: Chest pain, %” value ([5]; N = 145)?
A: The value was “(2.1) %”.

Q: What about the “Serious AE: Dyspnea, %” value ([5]; N = 145) of the same molecule?
A: The value was “(3.4) %”.

Q: And the “Serious AE: Febrile neutropenia, %” value ([5]; N = 145)?
A: Its value is “(2.8) %”.

Q: What about the “Serious AE: Pneumonia, %” value ([5]; N = 145) of the same molecule?
A: The value was “(3.4) %”.

Q: And the “Serious AE: Pyrexia, %” value ([5]; N = 145)?
A: The value was “(2.8) %”.

Q: And the “grade 2 rash, %” value ([5]; N = 145)?
A: The value was 1.4%.

Q: What about the “grade 3 dyspnea, %” value ([5]; N = 145) of the same molecule?
A: The value was 6.2%.

Q: What about the “grade 3 nausea, %” value ([5]; N = 145) of the same molecule?
A: The value was 3.4%.

Q: And the “grade 3 rash, %” value ([5]; N = 145)?
A: The value was 1.4%.

Q: What about the “grade 4 rash, %” value ([5]; N = 145) of the same molecule?
A: Its value is 0.7%.

Q: What about the “subjects with a treatment-emergent AE that led to study drug discontinuation” value ([5]; N = 145) of the same molecule?
A: The value was 15.2%.

Q: And the “subjects with a treatment-emergent, serious AE” value ([5]; N = 145)?
A: Its value is 31.0%.

Q: And the “subjects who died while on study, %” value ([5]; N=145, none attributed by the investigator to entospletinib)?
A: Its value is 12.4%.

Q: What about the “subjects with at least one AE” value ([5]; all treated subjects N=145) of the same molecule?
A: Its value is 94.5%.

Q: What about the “time to grade 3 or 4 ALT/AST elevation, first quartile” value ([5]; human, in vivo, 800 mg) of the same molecule?
A: The value was 4.1 weeks.

Q: And the “time to grade 3 or 4 ALT/AST elevation, third quartile” value ([5]; human, in vivo, 800 mg)?
A: Its value is 6.1 weeks.

Q: What about the “subjects with ALT/AST elevation who resumed after interruption without further event, %” value ([5]; of 21 subjects) of the same molecule?
A: The value was 57.1%.

Q: And the “grade 3 or 4 ALT/AST elevations that occurred by 6 weeks” value ([5]; of 21 subjects with elevations)?
A: Its value is 10.

Q: And the “Reversible grade 3 or 4 ALT/AST elevations, %” value ([5]; of 145 subjects)?
A: The value was 14.5%.

Q: And the “Reversible grade 3 or 4 ALT/AST elevations, subjects” value ([5]; of 145 subjects)?
A: Its value is 21 subjects.

Q: What about the “deaths on study due to disease progression” value ([5]; of eighteen deaths) of the same molecule?
A: The value was 13.

Q: And the tolerability ([5]; phase 2 study)?
A: The tolerability was “well tolerated”.
